Legend:
[1] = for surface tension liquid-gas: Wilhelmy-plate method; for mass density: 100 kPa, Liquid, Vibrating tube method
[2] = xn = mol fraction of the nth substance listed; conditions: for surface tension liquid-gas: Wilhelmy-plate method; for mass density: 100 kPa, Liquid, Vibrating tube method

CC(O)CO (centres undefined) [1,2-propanediol]
[1]
Conditions | mass density [kg/m3] | surface tension liquid-gas [mN/m]
298.15 K | 1032.69 | 35.74
308.15 K | 1025.21 | 35.35
318.15 K | 1017.51 | 34.96
328.15 K | 1009.78 | 34.6

CC(C)O [propan-2-ol]
[1]
Conditions | mass density [kg/m3] | surface tension liquid-gas [mN/m]
298.15 K | 781.18 | 20.85
308.15 K | 772.32 | 20.1
318.15 K | 763.61 | 19.4
328.15 K | 754.84 | 18.75

CC(C)O [propan-2-ol] + CC(O)CO
[2], x1 = 1
Conditions | mass density [kg/m3] | surface tension liquid-gas [mN/m]
298.15 K | 781.18 | 20.85
308.15 K | 772.32 | 20.1
318.15 K | 763.61 | 19.4
328.15 K | 754.84 | 18.75

O [water]
[1]
Conditions | mass density [kg/m3] | surface tension liquid-gas [mN/m]
298.15 K | – | 72.03
308.15 K | – | 70.3
318.15 K | – | 68.7
328.15 K | 985.66 | 66.9

O [water] + CC(O)CO
[2], x2 = 0
Conditions | mass density [kg/m3] | surface tension liquid-gas [mN/m]
298.15 K | – | 72.03
308.15 K | – | 70.3
318.15 K | – | 68.7
328.15 K | 985.66 | 66.9

Reference: the NIST ThermoML archive (doi:10.1016/j.fluid.2014.12.040)
